Patent US11649253B2, “Terbium and dysprosium complexes with optimised antenna, used as luminescent markers” (ECOLE NORMALE SUPERIEURE DE LYON, priority 2017, dated 2023)
Several values for one entry are separate records, joined by “and”; a condition that tells them apart may be missing. Identical values can stand only once.

Key:
[1] = Photophysical properties of the complexes measured in methanol; assay type: physicochemical; conditions: for λ max: absorption; for B at λ max: brightness at λ max; for ε: molar extinction coefficient; for Φ: quantum yield
Description: (§1) The NMR (^1H, ^13C) spectra were recorded on a Bruker Avance device at a frequency of 300 MHz or 500.10 MHz, and 75 MHz or 125.75 MHz, for ^1H and ^13C respectively. Chemical shifts (δ) are expressed in parts per million (ppm) with respect to […] used as an internal standard and using the solvents indicated. The coupling constants (J) are expressed in Hz and the following notations are used: s (singlet), br (broad), d (doublet), t (triplet), dd (doublet of doublets), m (multiplet). The high-resolution mass spectra were recorded at the Lyon Common Mass Spectrometry Centre (Claude Bernard Lyon University, Lyon, France) on a MicroTOFQII instrument equipped with a positive ESI source. […] Purifications were carried out by chromatographic column on silica gel (silica gel 0.035-0.070 mm, 60 A). The solvents used for the reactions were purchased from Aldrich or Acros Organics as dry or extra dry solvents and stored on 3 Å molecular sieves and the reagents used were purchased from Aldrich, Acros Organics or Alfa Aesar. The UV/Vis absorption spectra were recorded on a JASCO V670 spectrometer; the emission spectra on a JOBIN-YVON fluorolog 3 spectrofluorimeter. Retention times were performed on an Agilent Technologies 1260 device equipped with a Waters XBridge RP-C18 column ([…], 4.6×100 mm). The chromatographic system used is 0.25 M ammonium formate-MeCN (v/v) as eluents: isocratic 15% MeCN (2 min), linear gradient 15 to 100% MeCN (16 min), isocratic 100% MeCN (4 min), at a rate of 1 mL/min, UV detection at 210 and 252 nm. Cellular imaging tests were performed using a solution concentrated in complex in DMSO to obtain a final complex concentration in the order of […] in cellular medium (PBS) with <1% DMSO. The T24 cells are prefixed to the PFA. The biphotonic absorption spectra were performed with a confocal laser scanning microscope LSM710 NLO (Carl Zeiss).
The properties of complexes Ia.1-Ia.6 and 8 were evaluated in methanol (Table 1) and water (Table 2). These properties were compared to those of complex 9, described in the document, Dalton Trans.

[2] = Photophysical properties of the complexes measured in water; assay type: physicochemical; conditions: for λ max: absorption; for B at λ max: brightness at λ max; for ε: molar extinction coefficient
Description: as §1
The properties of complexes Ia.1-Ia.6 and 8 were evaluated in methanol (Table 1) and water (Table 2). These properties were compared to those of complex 9, described in the document, Dalton Trans. 2015, 44, 4918, and of the following structure:
The spectroscopic properties of complexes Ia.2 and Ia.4 are stored in water (Table 2).

SMILES	λ max ([1]; methanol)	B at λ max ([1]; methanol)	ε ([1]; methanol)	Φ ([1]; methanol)	decrease of the molar extinction coefficient on introduction of a second methyl group ([1]; Ia.4 compared with its counterpart Ia.2)	B at 330 nm ([1]; brightness at 330 nm, methanol)	T ([1]; luminescence lifetime, methanol)	λ max ([2]; absorption band at 275 nm)	λ max ([2]; absorption band at 300 nm)	B at 330 nm ([2]; brightness at 330 nm)	B at λ max ([2]; absorption band at 275 nm)	B at λ max ([2]; absorption band at 300 nm)	T ([2]; luminescence lifetime)	ε ([2]; absorption band at 275 nm)	ε ([2]; absorption band at 300 nm)	Φ ([2]; quantum yield)
COc1ccc(-c2cc(CN3CCN(Cc4cc(-c5ccc(OC)cc5)cc(C(=O)[O-])n4)CCN(Cc4cc(-c5ccc(OC)cc5)cc(C(=O)[O-])n4)CC3)nc(C(=O)[O-])c2)cc1.[Tb+3] [complex 9, reference compound]	308 nm	3900 L/mol/cm	33000 L/mol/cm	12%												
COCCOCCOCCOc1cc(C)c(-c2cc(CN3CCN(Cc4cc(-c5c(C)cc(OCCOCCOCCOC)cc5C)cc(C(=O)[O-])n4)CCN(Cc4cc(-c5c(C)cc(OCCOCCOCCOC)cc5C)cc(C(=O)[O-])n4)CC3)nc(C(=O)[O-])c2)c(C)c1.[Tb+3] [Ia.4]	302 nm and 274 nm	8500 L/mol/cm and 12000 L/mol/cm	13000 L/mol/cm and 19000 L/mol/cm	65%	more than 50%	3400 L/mol/cm	1.59 ms	275 nm	300 nm	2500 L/mol/cm	14000 L/mol/cm	7800 L/mol/cm	1.46 ms	21000 L/mol/cm	11800 L/mol/cm	66%
